One assay concerns PAPRH = Papaver rhoeas. The assay is described as follows: Postemergence herbicidal activity in cereal crops, Papaver rhoeas. Format: in vivo. The note with it: post-emergence, 480 h, post-emergent, after 20-22 days; for pest or weed control at 17.5 g/ha: 17.5 g ai/ha; for pest or weed control at 70 g/ha: 70 g ai/ha; for pest or weed control at 35 g/ha: 35 g ai/ha. As to the method: Seeds of the desired test plant species were planted in Sun Gro MetroMix® 306 planting mixture, which typically has a pH of 6.0 to 6.8 and an organic matter content of about 30 percent, in plastic pots with a surface area of 103.2 square centimeters. When required to ensure good germination and healthy plants, a fungicide treatment and/or other chemical or physical treatment was applied. The plants were grown for 7-36 days in a greenhouse with an approximate 14 hour photoperiod which was maintained at about 18° C. during the day and 17° C. during the night. Nutrients and water were added on a regular basis and supplemental lighting was provided with overhead metal halide 1000-Watt lamps as necessary. The plants were employed for testing when they reached the second or third true leaf stage.
A weighed amount, determined by the highest rate to be tested, of each test compound was placed in a 25 mL glass vial and was dissolved in 8 mL of a 97:3 v/v mixture of acetone and DMSO to obtain concentrated stock solutions. […] The concentrated stock solutions obtained were diluted with 16 mL of an aqueous mixture containing acetone, water, isopropyl alcohol, DMSO, Agri-dex crop oil concentrate, and Triton X-77 surfactant in a 64.7:26.0:6.7:2.0:0.7:0.01 v/v ratio to obtain spray solutions containing the highest application rates. Additional application rates were obtained by serial dilution of 12 mL of the high rate solution into a solution containing 4 mL of 97:3 v/v mixture of acetone and DMSO and 8 mL of an aqueous mixture containing acetone, water, isopropyl alcohol, DMSO, Agri-dex crop oil concentrate, and Triton X-77 surfactant in a 48.5:39.0:10.0:1.5:1.0:0.02 v/v ratio to obtain ½×, ¼×, ⅛× and 1/16× rates of the high rate. Compound requirements are based upon a 12 mL application volume at a rate of 187 L/ha. Formulated compounds were applied to the plant material with an overhead Mandel track sprayer equipped with a 8002E nozzles calibrated to deliver 187 L/ha over an application area of 0.503 square meters at a spray height of 18 inches (43 cm) above average plant canopy height. Control plants were sprayed in the same manner with the blank.
The treated plants and control plants were placed in a greenhouse as described above and watered by sub-irrigation to prevent wash-off of the test compounds. After 20-22 days, the condition of the test plants as compared with that of the untreated plants was determined visually and scored on a scale of 0 to 100 percent where 0 corresponds to no injury and 100 corresponds to complete kill.

Assay [1] relates to HELAN = sunflower (Helainthus annuus). The assay is described as follows: General postemergence herbicidal activity, sunflower. In kind it is in vivo. The note with it: post-emergence, 336 h; post-emergent, 140 g ai/ha, visual score after 14 days (0 no injury, 100 complete kill). On the procedure: Seeds or nutlets of the desired test plant species were planted in Sun Gro MetroMix® 306 planting mixture, which typically has a pH of 6.0 to 6.8 and an organic matter content of about 30 percent, in plastic pots with a surface area of 64 square centimeters. When required to ensure good germination and healthy plants, a fungicide treatment and/or other chemical or physical treatment was applied. The plants were grown for 7-21 days in a greenhouse with an approximate 15 hour photoperiod which was maintained at about 23-29° C. during the day and 22-28° C. during the night. Nutrients and water were added on a regular basis and supplemental lighting was provided with overhead metal halide 1000-Watt lamps as necessary. The plants were employed for testing when they reached the first or second true leaf stage.
A weighed amount, determined by the highest rate to be tested, of each test compound was placed in a 25 mL glass vial and was dissolved in 4 mL of a 97:3 v/v (volume/volume) mixture of acetone and dimethyl sulfoxide (DMSO) to obtain concentrated stock solutions. […] The concentrated stock solutions obtained were diluted with 20 mL of an aqueous mixture containing acetone, water, isopropyl alcohol, DMSO, Atplus 411F crop oil concentrate, and Triton X-155 surfactant in a 48.5:39:10:1.5:1.0:0.02 v/v ratio to obtain spray solutions containing the highest application rates. Additional application rates were obtained by serial dilution of 12 mL of the high rate solution into a solution containing 2 mL of 97:3 v/v (volume/volume) mixture of acetone and dimethyl sulfoxide (DMSO) and 10 mL of an aqueous mixture containing acetone, water, isopropyl alcohol, DMSO, Atplus 411F crop oil concentrate, and Triton X-155 surfactant in a 48.5:39:10:1.5:1.0:0.02 v/v ratio to obtain ½×, ¼×, ⅛× and 1/16× rates of the high rate. Compound requirements are based upon a 12 mL application volume at a rate of 187 L/ha. Formulated compounds were applied to the plant material with an overhead Mandel track sprayer equipped with a 8002E nozzles calibrated to deliver 187 L/ha over an application area of 0.503 square meters at a spray height of 18 inches (43 cm) above the average plant canopy height. Control plants were sprayed in the same manner with the solvent blank.
The treated plants and control plants were placed in a greenhouse as described above and watered by sub-irrigation to prevent wash-off of the test compounds. After 14 days, the condition of the test plants as compared with that of the untreated plants was determined visually and scored on a scale of 0 to 100 percent where 0 corresponds to no injury and 100 corresponds to complete kill.
By applying the well-accepted probit analysis as described by J. Berkson in Journal of the […], 48, 565 (1953) and by D. Finney in “Probit Analysis” Cambridge University Press (1952), the above data can be used to calculate GR50 and GR80 values, which are defined as growth reduction factors that correspond to the effective dose of herbicide required to kill or control 50 percent or 80 percent, respectively, of a target plant.

Pest or weed control data for 9 compounds are collected here from patent publication US9199943B2, “2-(poly-substituted aryl)-6-amino-5-halo-4-pyrimidinecarboxylic acids and their use as herbicides” (Dow AgroSciences, LLC., priority 2006, dated 2015).

Consider `COC(=O)c1nc(-c2ccc(Cl)c(OC)c2F)nc(N)c1Br` [Compound 13, 6-amino-5-bromo-2-(4-chloro-2-fluoro-3-methoxyphenyl)-pyrimidine-4-carboxylic acid methyl ester], for which the pest or weed control at 17.5 g/ha in the assay with PAPRH = Papaver rhoeas was 100%. Also, the pest or weed control at 140 g/ha in assay [1] came out at 100%.
For `COC(=O)c1nc(-c2ccc(Cl)c(OC)c2F)nc(N)c1Cl` [Compound 3, 6-amino-5-chloro-2-(4-chloro-2-fluoro-3-methoxyphenyl)-pyrimidine-4-carboxylic acid methyl ester], the pest or weed control at 17.5 g/ha in the assay on PAPRH = Papaver rhoeas came to 100%. The same compound returned a pest or weed control at 140 g/ha in assay [1] of 100%.
As for `COC(=O)c1nc(-c2ccc(Cl)c(OCC(F)F)c2F)nc(N)c1Cl` [Compound 10, 6-Amino-5-chloro-2-[4-chloro-3-(2,2-difluoroethoxy)-2-fluorophenyl]-pyrimidine-4-carboxylic acid methyl ester], the pest or weed control at 70 g/ha in the assay with PAPRH = Papaver rhoeas is 95%. This compound also came in with a pest or weed control at 140 g/ha in assay [1] of 80%.
Compound `COC(=O)c1nc(-c2ccc(Cl)c(N(C)C)c2F)nc(N)c1Cl` [Compound 8, 6-Amino-5-chloro-2-(4-chloro-3-dimethylamino-2-fluorophenyl)pyrimidine-4-carboxylic acid methyl ester] displayed a pest or weed control at 35 g/ha in the assay on PAPRH = Papaver rhoeas of 100%. The pest or weed control at 140 g/ha in assay [1] is 100%.
As to `COC(=O)c1nc(-c2ccc(Cl)c(C(F)F)c2F)nc(N)c1Cl` [Compound 7, 6-Amino-5-chloro-2-(4-chloro-3-difluoromethyl-2-fluorophenyl)pyrimidine-4-carboxylic acid methyl ester], in the assay with PAPRH = Papaver rhoeas, the pest or weed control at 17.5 g/ha amounted to 95%. Also, the pest or weed control at 140 g/ha in assay [1] stood at 100%.
In the case of `COC(=O)c1nc(-c2ccc3c(c2F)OCO3)nc(N)c1Cl` [Compound 9, 6-Amino-5-chloro-2-(4-fluorobenzo[1,3]dioxol-5-yl)pyrimidine-4-carboxylic acid methyl ester], in the assay with PAPRH = Papaver rhoeas, the pest or weed control at 70 g/ha turned out to be 40%. Moreover, the pest or weed control at 140 g/ha in assay [1] was determined as 100%.
Consider `COC(=O)c1nc(-c2c(F)cc(Cl)c(OC)c2F)nc(N)c1Cl` [Compound 2, 6-amino-5-chloro-2-(4-chloro-2,6-difluoro-3-methoxy-phenyl)pyrimidine-4-carboxylic acid methyl ester], for which the pest or weed control at 35 g/ha in the assay on PAPRH = Papaver rhoeas worked out at 100%. In addition, the pest or weed control at 140 g/ha in assay [1] was 100%.
Compound `COC(=O)c1nc(-c2ccc(Cl)c(OC)c2Cl)nc(N)c1Cl` [Compound 6, 6-Amino-5-chloro-2-(2,4-dichloro-3-methoxyphenyl)pyrimidine-4-carboxylic acid methyl ester] returned a pest or weed control at 70 g/ha in the assay with PAPRH = Papaver rhoeas of 99%. Besides, the pest or weed control at 140 g/ha in assay [1] came out at 100%.
Compound `CCOc1c(Cl)ccc(-c2nc(N)c(Cl)c(C(=O)OC)n2)c1F` [Compound 1, 6-amino-5-chloro-2-(4-chloro-3-ethoxy-2-fluorophenyl)-pyrimidine-4-carboxylic acid methyl ester] displayed a pest or weed control at 35 g/ha in the assay with PAPRH = Papaver rhoeas of 100%. The compound further showed a pest or weed control at 140 g/ha in assay [1] of 100%.

A word on the pest or weed control: it is how far the test organism was held down. Read a high pest or weed control as a strong effect.
